System: IL-1β production in PMA-differentiated THP-1 cells
Experiment: IL-1β production in PMA-differentiated THP-1 cells stimulated with gramicidin (hTHP-1 assay)
Assay type: cell-based, human
Experimental: Procedure 1: IL-1β Production in PMA-Differentiated THP-1 Cells Stimulated with Gramicidin
THP-1 cells were purchased from the American Type Culture Collection and sub-cultured according to instructions from the supplier. Cells were cultured in complete RPMI 1640 (containing 10% heat inactivated FBS, penicillin (100 units/ml) and streptomycin (100 μg/ml)), and maintained in log phase prior to experimental setup. Prior to the experiment, compounds were dissolved in dimethyl sulfoxide (DMSO) to generate a 30 mM stock. The compound stock was first pre-diluted in DMSO to 3, 0.34, 0.042 and 0.0083 mM intermediate concentrations and subsequently spotted using Echo550 liquid handler into an empty 384-well assay plate to achieve desired final concentration (e.g. 100, 33, 11, 3.7, 1.2, 0.41, 0.14, 0.046, 0.015, 0.0051, 0.0017 μM). DMSO was backfilled in the plate to achieve a final DMSO assay concentration of 0.37%. The plate was then sealed and stored at room temperature until required.
THP-1 cells were treated with PMA (Phorbol 12-myristate 13-acetate) (20 ng/ml) for 16-18 hours. On the day of the experiment the media was removed and adherent cells were detached with trypsin for 5 minutes. Cells were then harvested, washed with complete RPMI 1640, spun down, and resuspended in RPMI 1640 (containing 2% heat inactivated FBS, penicillin (100 units/ml) and streptomycin (100 μg/ml). The cells were plated in the 384-well assay plate containing the spotted compounds at a density of 50,000 cells/well (final assay volume 50 μl). Cells were incubated with compounds for 1 hour and then stimulated with gramicidin (5 μM) (Enzo) for 2 hours. Plates were then centrifuged at 340 g for 5 min. Cell free supernatant ([…]) was collected using a 96-channel PlateMaster (Gilson) and the production of IL-1β was evaluated by HTRF (cisbio). The plates were incubated for 18 h at 4° C. and read using the preset HTRF program (donor emission at 620 nm, acceptor emission at 668 nm) of the SpectraMax i3x spectrophotometer (Molecular Devices, software SoftMax 6). A vehicle only control and a dose titration of CRID3 (100-0.0017 μM) were run concurrently with each experiment.
Procedure 2: […] Production in PMA-Differentiated THP-1 Cells Stimulated with Gramicidin
THP-1 cells were purchased from the American Type Culture Collection and sub-cultured according to instructions from the supplier. Prior to experiments, cells were cultured in complete RPMI 1640 (containing 10% heat inactivated FBS, penicillin (100 units/ml) and streptomycin (100 μg/ml)), and maintained in log phase prior to experimental setup. Prior to the experiment THP-1 were treated with PMA (Phorbol 12-myristate 13-acetate) (20 ng/ml) for 16-18 hours. Compounds were dissolved in dimethyl sulfoxide (DMSO) to generate a 30 mM stock. On the day of the experiment the media was removed and adherent cells were detached with trypsin for 5 minutes. Cells were then harvested, washed with complete RPMI 1640, spun down, resuspended in RPMI 1640 (containing 2% heat inactivated FBS, penicillin (100 units/ml) and streptomycin (100 μg/ml). The cells were plated in a 384-well plate at a density of 50,000 cells/well (final assay volume 50 μl). Compounds were first dissolved in assay medium to obtain a 5× top concentration of 500 μM. 10 step dilutions (1:3) were then undertaken in assay medium containing 1.67% DMSO. 5× compound solutions were added to the culture medium to achieve desired final concentration (e.g. 100, 33, 11, 3.7, 1.2, 0.41, 0.14, 0.046, 0.015, 0.0051, 0.0017 μM). Final DMSO concentration was at 0.37%. Cells were incubated with compounds for 1 hour and then stimulated with gramicidin (5 μM) (Enzo) for 2 hours. Plates were then centrifuged at 340 g for 5 min. Cell free supernatant (40 μL) was collected using a 96-channel PlateMaster (Gilson) and the production of IL-1β was evaluated by HTRF (cisbio). A vehicle only control and a dose titration of CRID3 (100-0.0017 μM) were run concurrently with each experiment. […]

[1] = Average IC50, hTHP-1 assay containing 2% fetal bovine serum, Table 10, class symbols
[2] = Homo sapiens, THP-1, Average IC50, hTHP-1 assay containing 2% fetal bovine serum, Table 10, numeric values
[3] = Average IC50, hTHP-1 assay containing 2% fetal bovine serum, Table 10, numeric values
[4] = Homo sapiens, THP-1, Average IC50, hTHP-1 assay containing 2% fetal bovine serum, Table 10, class symbols
[5] = Homo sapiens, THP-1, Average IC50, hTHP-1 assay containing 2% fetal bovine serum, Table 3B, class symbols

`CC(CN(C)C)CS(N)(=O)=NC(=O)Nc1c2c(cc3c1CCC3)CCC2` (stereo not drawn) [Compound 123, 3-(dimethylamino)-N′-((1,2,3,5,6,7-hexahydro-s-indacen-4-yl)carbamoyl)-2-methylpropane-1-sulfonimidamide] showed an IC50 [1] of 5 to 30 µM.

In the case of `CC(CN(C)C)CS(N)(=O)=NC(=O)Nc1c2c(cc3c1CCC3)CCC2` (stereo not drawn) [Compound 125, 3-(dimethylamino)-N′-((1,2,3,5,6,7-hexahydro-s-indacen-4-yl)carbamoyl)-2-methylpropane-1-sulfonimidamide], the IC50 [1] is reported as 1 to 5 µM.

With `CC(CN(C)C)CS(N)(=O)=NC(=O)Nc1c2c(cc3c1CCC3)CCC2` (stereo not drawn) [Compound 126, 3-(dimethylamino)-N′-((1,2,3,5,6,7-hexahydro-s-indacen-4-yl)carbamoyl)-2-methylpropane-1-sulfonimidamide] the IC50 [2] was greater than 30 µM.

Work on `CN1CCC(S(N)(=O)=NC(=O)Nc2c3c(cc4c2CCC4)CCC3)CC1` (stereo not drawn) [Compound 137] yielded an IC50 [2] greater than 30 µM.

Work on `CN1CCC(S(N)(=O)=NC(=O)Nc2c3c(cc4c2CCC4)CCC3)CC1` (stereo not drawn) [Compound 138] yielded an IC50 [3] greater than 30 µM.

`NS(=O)(=NC(=O)Nc1c2c(cc3c1CCC3)CCC2)C1Cc2ccccc2C1` (stereo not drawn) [Compound 139, N′-((1,2,3,5,6,7-hexahydro-s-indacen-4-yl)carbamoy1)-2,3-dihydro-1H-indene-2-sulfonimidamide] was tested, and the IC50 [4] was 5 to 30 µM.

`CN1CCC(S(N)(=O)=NC(=O)Nc2c3c(cc4c2CCC4)CCC3)CC1` (stereo not drawn) [Compound 140] was tested, and the IC50 [3] was greater than 30 µM.

Compound `CN(C)CCCS(N)(=O)=NC(=O)Nc1c2c(cc3c1CCC3)CCC2` (stereo not drawn) [Compound 141] has an IC50 [4] of 5 to 30 µM.

With `CN(C)CCCS(N)(=O)=NC(=O)Nc1c2c(cc3c1CCC3)CCC2` (stereo not drawn) [Compound 144] the IC50 [1] was 5 to 30 µM.

With `NS(=O)(=NC(=O)Nc1c2c(cc3c1CCC3)CCC2)C1CCCCC1` (stereo not drawn) [Compound 147] the IC50 [2] was greater than 30 µM.

In the case of `NS(=O)(=NC(=O)Nc1c2c(cc3c1CCC3)CCC2)C1CCCCC1` (stereo not drawn) [Compound 148], the IC50 [3] is reported as greater than 30 µM.

For `NS(=O)(=NC(=O)Nc1c2c(cc3c1CCC3)CCC2)C1CCC1` (stereo not drawn) [Compound 149, N′-((1,2,3,5,6,7-hexahydro-s-indacen-4-yl)carbamoyl) cyclobutane-sulfonimidamide], the IC50 [2] was greater than 30 µM.

Work on `NS(=O)(=NC(=O)Nc1c2c(cc3c1CCC3)CCC2)C1CCCCC1` (stereo not drawn) [Compound 150] yielded an IC50 [3] greater than 30 µM.

Work on `NS(=O)(=NC(=O)Nc1c2c(cc3c1CCC3)CCC2)C1CCCC1` (stereo not drawn) [Compound 151] yielded an IC50 [2] greater than 30 µM.

With `NS(=O)(=NC(=O)Nc1c2c(cc3c1CCC3)CCC2)C1CCCC1` (stereo not drawn) [Compound 152] the IC50 [3] was greater than 30 µM.

For `NS(=O)(=NC(=O)Nc1c2c(cc3c1CCC3)CCC2)C1CCCC1` (stereo not drawn) [Compound 153], the IC50 [4] was 5 to 30 µM.

With `NS(=O)(=NC(=O)Nc1c2c(cc3c1CCC3)CCC2)C1CC1` (stereo not drawn) [Compound 156, N′-((1,2,3,5,6,7-hexahydro-s-indacen-4-yl)carbamoyl) cyclopropane-sulfonimidamide] the IC50 [2] was greater than 30 µM.

Compound `CN(C)CC1(S(N)(=O)=NC(=O)Nc2c3c(cc4c2CCC4)CCC3)CC1` (stereo not drawn) [Compound 158] has an IC50 [2] greater than 30 µM.

Compound `CN(C)CC1(S(N)(=O)=NC(=O)Nc2c3c(cc4c2CCC4)CCC3)CC1` (stereo not drawn) [Compound 159] has an IC50 [3] greater than 30 µM.

For `CN(C)CC1(S(N)(=O)=NC(=O)Nc2c3c(cc4c2CCC4)CCC3)CC1` (stereo not drawn) [Compound 160], the IC50 [3] was greater than 30 µM.

For `CC1(S(N)(=O)=NC(=O)Nc2c3c(cc4c2CCC4)CCC3)CC1` (stereo not drawn) [Compound 161], the IC50 [2] was greater than 30 µM.

`CC1(S(N)(=O)=NC(=O)Nc2c3c(cc4c2CCC4)CCC3)CC1` (stereo not drawn) [Compound 162] gave an IC50 [4] of 0.2 to 1 µM.

`CC1(S(N)(=O)=NC(=O)Nc2c3c(cc4c2CCC4)CCC3)CC1` (stereo not drawn) [Compound 163] showed an IC50 [3] greater than 30 µM.

Work on `CN(C)Cc1cccc(CS(N)(=O)=NC(=O)Nc2c3c(cc4c2CCC4)CCC3)c1` (stereo not drawn) [Compound 164, 1-(3-((dimethylamino)methyl)pheny1)-N′-((1,2,3,5,6,7-hexahydro-s-indacen-4-yl)carbamoyl) methane-sulfonimidamide] yielded an IC50 [4] of 5 to 30 µM.

In the case of `CC(C)(O)c1ccc(CS(N)(=O)=NC(=O)Nc2c3c(cc4c2CCC4)CCC3)cc1` (stereo not drawn) [Compound 165, N′-((1,2,3,5,6,7-hexahydro-s-indacen-4-yl)carbamoyl)-1-(4-(2-hydroxypropan-2-yl)phenyl)methane-sulfonimidamide], the IC50 [4] is reported as 0.2 to 1 µM.

`CC(C)c1cc(C#N)cc(C(C)C)c1CC(=O)NS(=O)(=O)N1CCCCC1` [Compound 201B, 2-(4-cyano-2,6-diisopropylphenyl)-N-(piperidin-1-ylsulfonyl)acetamide] gave an IC50 [5] of 5 to 30 µM.

`CC(C)c1cc(C#N)cc(C(C)C)c1CC(=O)NS(=O)(=O)N1CCC(CN(C)C)CC1` [Compound 202B, 2-(4-cyano-2,6-diisopropylphenyl)-N-((4-((dimethylamino)methyl)piperidin-1-yl)sulfonyl) acetamide] was tested, and the IC50 [5] was 5 to 30 µM.

`CC(C)c1cc(C#N)cc(C(C)C)c1CC(=O)NS(=O)(=O)N1CCC(C(C)(C)O)C1` (stereo not drawn) [Compound 203B] was tested, and the IC50 [5] was 5 to 30 µM.

With `CC(C)c1cc(F)cc(C(C)C)c1CC(=O)N=S(N)(=O)CCCN(C)C` (stereo not drawn) [Compound 301] the IC50 [2] was greater than 30 µM.

For `CC(C)c1cc(F)cc(C(C)C)c1CC(=O)N=S(N)(=O)CCCN(C)C` (stereo not drawn) [Compound 302], the IC50 [3] was greater than 30 µM.

Work on `CC(C)c1cc(F)cc(C(C)C)c1CC(=O)N=S(N)(=O)CCCN(C)C` (stereo not drawn) [Compound 303] yielded an IC50 [3] greater than 30 µM.

`CC(C)c1cc(F)cc(C(C)C)c1CC(=O)N=S(N)(=O)C1CCCC1` (stereo not drawn) [Compound 304] gave an IC50 [2] greater than 30 µM.

For `CC(C)c1cc(F)cc(C(C)C)c1CC(=O)N=S(N)(=O)C1CCCC1` (stereo not drawn) [Compound 305], the IC50 [3] was greater than 30 µM.

With `CC(C)c1cc(F)cc(C(C)C)c1CC(=O)N=S(N)(=O)C1CCCC1` (stereo not drawn) [Compound 306] the IC50 [3] was greater than 30 µM.

Compound `CC(C)c1cc(F)cc(C(C)C)c1CC(=O)N=S(N)(=O)C1CC1` (stereo not drawn) [Compound 307] has an IC50 [4] of 0.008 to 0.04 µM.

`CC(C)c1cc(F)cc(C(C)C)c1CC(=O)N=S(N)(=O)C1CC1` (stereo not drawn) [Compound 308] showed an IC50 [2] greater than 30 µM.

Compound `CC(C)c1cc(F)cc(C(C)C)c1CC(=O)N=S(N)(=O)C1CC1` (stereo not drawn) [Compound 309] has an IC50 [3] greater than 30 µM.

Work on `CC(C)c1cc(F)cc(C(C)C)c1NC(=O)NS(=O)(=O)C1CC1` [Compound 401] yielded an IC50 [2] of 31.5 µM.

For `CC(C)c1cccc(C(C)C)c1NC(=O)NS(=O)(=O)CC(O)c1ccsc1` (stereo not drawn) [Compound 402], the IC50 [4] was 5 to 30 µM.

For `CC(C)c1cc(Cl)cc(C(C)C)c1NC(=O)NS(=O)(=O)CC(=O)c1ccsc1` [Compound 403], the IC50 [4] was 5 to 30 µM.

`COC(=O)CS(=O)(=O)NC(=O)Cc1c(C(C)C)cc(F)cc1C(C)C` [Compound 501] gave an IC50 [2] greater than 100 µM.

Compound `CC(C)c1cc(F)cc(C(C)C)c1CC(=O)NS(=O)(=O)Cc1cccc(C(C)(C)O)c1` [Compound 502] has an IC50 [2] greater than 100 µM.

`CC(C)c1cc(F)cc(C(C)C)c1CC(=O)NS(=O)(=O)CC(=O)O` [Compound 503] showed an IC50 [2] greater than 100 µM.

`COC(=O)CCS(=O)(=O)NC(=O)Cc1c2c(cc3c1CCC3)CCC2` [Compound 504] gave an IC50 [4] of 1 to 5 µM.

With `CC(C)c1ncc(CS(=O)(=O)NC(=O)Cc2c(C(C)C)cc(F)cc2C(C)C)s1` [Compound 505] the IC50 [2] was greater than 97.1 µM.

In the case of `CC(C)c1cc(F)cc(C(C)C)c1CC(=O)NS(=O)(=O)Cc1ccc(C(C)(C)O)cc1` [Compound 506], the IC50 [4] is reported as 5 to 30 µM.

`CC(C)c1cc(F)cc(C(C)C)c1CC(=O)NS(=O)(=O)Cc1ccc(CN)cc1` [Compound 507] gave an IC50 [2] greater than 100 µM.

`CC(C)c1cc(F)cc(C(C)C)c1CC(=O)NS(=O)(=O)Cc1cccc(CN)c1` [Compound 508] showed an IC50 [2] greater than 100 µM.
